Publication PMC3368874, “Characterization of 4-HNE Modified L-FABP Reveals Alterations in Structural and Functional Dynamics” (PLoS ONE, 2012)
Like-named read-outs stand apart in the source and are kept apart here.

Assays:
apo rL-FABP = biological target: T1, apo rL-FABP (Mus musculus, UniProt P12710); assay: Thermal denaturation of apo rL-FABP (UV-monitored)
T1 construct: made in house; host or cells: Escherichia coli BL21 (DE3)
T1 sequence (P12710 1-127): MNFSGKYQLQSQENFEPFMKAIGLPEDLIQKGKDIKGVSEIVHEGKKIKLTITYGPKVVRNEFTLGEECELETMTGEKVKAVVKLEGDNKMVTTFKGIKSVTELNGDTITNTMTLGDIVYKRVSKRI
Procedure: (§1) The stability of rL-FABP was assessed using UV-monitored heating experiments. Native (apo and holo) and 4-HNE modified (apo and holo) rL-FABP (0.8 mg/ml) was thermally denatured in 50 mM tricine buffer (pH 8.0) at 40–95°C over 1.5 hours in a 0.7 mL quartz cell (Starna Cells). Absorbance of rL-FABP was monitored at 260–360 nm using a Chirascan Plus Spectrometer (Applied Photophysics, Leatherhead, Surrey, UK) once per minute. Temperature was continuously ramped 1°C/min. Light scattering was recorded continuously at 360 nm to monitor protein aggregation. Temperature of aggregation (Tm) was determined using Global Analysis T-Ramp software provided by Applied Photophysics (Pro-Data Global3 v1.1.0) following baseline correction.

holo rL-FABP = biological target: T2, holo rL-FABP (Mus musculus, UniProt P12710); assay: Thermal denaturation of holo rL-FABP (UV-monitored); conditions: semi-quantitative
T2 construct: made in house; host or cells: Escherichia coli BL21 (DE3)
T2 sequence (P12710 1-127): T1 sequence (P12710 1-127)
Procedure: as §1

[1] = parameters: method as in PMID 12437335; conditions: cited from earlier work
4-HNE modified rL-FABP = biological target: T3, 4-HNE modified rL-FABP (Mus musculus, UniProt P12710); assay: ANS equilibrium binding to 4-HNE treated rL-FABP (fluorescence)
T3 construct: made in house; host or cells: Escherichia coli BL21 (DE3)
T3 sequence (P12710 1-127): T1 sequence (P12710 1-127)
Procedure: (§2) Steady-state fluorescence spectra were measured using a HORIBA JOBIN YVON FluoroMax-3 Fluorometer (Edison, NJ USA). The binding of ANS to rL-FABP was monitored following excitation at 370 nm and emission at 475 nm, with slits set at 2 and 4 nm, respectively. Measurements were taken at ambient temperature in a 0.7 mL fluorescence cuvette (Starna Cells, Atascadero, CA). Equilibrium binding studies were conducted with saturating concentrations of ANS according to previous studies, [30] with slight modifications. Briefly, ANS (0–45 µM) was titrated into 1 µM rL-FABP in 50 mM tricine buffer (pH 8.0), mixed for 30 seconds, and emission spectra were recorded. rL-FABP was either treated with 4-HNE (0.1X [5.93 µM], 1X [53.93 µM], or 5X [245.09 µM]) or the arginine blocker phenylglyoxal (PG) (10 mM), or a combination of the two (PG +5X). Following treatments, protein was dialyzed overnight in tricine buffer, pH 8.0. Preparation of ANS was conducted according to Denicola et al., where it was solubilized in absolute ethanol and quantified at Abs372 with an extinction coefficient of 8,000 cm^−1·M^−1 prior to use.
(§3) Statistical analysis and generation of graphs was performed using GraphPad Prism (v 4.02; GraphPad Software, San Diego, CA) and SigmaPlot (v10.0; Systat Software, San Jose, CA). Statistical differences between control and treated samples were assessed using a paired Student’s t test or a one-way ANOVA with Tukey’s post-test. Differences were considered significant if p<0.05. Nonlinear regression (curve fit) analysis was performed using a two-site binding hyperbola (eq 1), where ΔF is the enhancement in fluorescence intensity upon the binding of ANS to L-FABP to a point of saturation (Bmax). [drawing 1] (1)

rL-FABP [2] = biological target: T4, rL-FABP (Mus musculus, UniProt P12710); assay: ANS equilibrium binding to native rL-FABP (fluorescence)
T4 construct: made in house; host or cells: Escherichia coli BL21 (DE3)
T4 sequence (P12710 1-127): T1 sequence (P12710 1-127)
Procedure: as §2, §3

[3] = biological target: T5, PG + 5X 4-HNE treated rL-FABP (Mus musculus, UniProt P12710); assay: ANS equilibrium binding to PG + 5X 4-HNE treated rL-FABP
T5 construct: made in house; host or cells: Escherichia coli BL21 (DE3)
T5 sequence (P12710 1-127): T1 sequence (P12710 1-127)
Procedure: as §2, §3

PG treated rL-FABP = biological target: T6, PG treated rL-FABP (Mus musculus, UniProt P12710); assay: ANS equilibrium binding to phenylglyoxal (PG) treated rL-FABP
T6 construct: made in house; host or cells: Escherichia coli BL21 (DE3)
T6 sequence (P12710 1-127): T1 sequence (P12710 1-127)
Procedure: as §2, §3

rL-FABP [4] = biological target: T4, rL-FABP; assay: Displacement of ANS by fatty acids, WT rL-FABP; type: binding; conditions: for bi (counts inhibitable) / Ki: 45 µM ANS, 1 µM protein; for Ki: read-out: ki (inhibition constant)
Procedure: (§4) Lipid displacement assays were adapted from previous publications, [30]. Briefly, lipids were used to displace ANS bound to rL-FABP to assess how 4-HNE modification affects affinity towards more biologic ligands. Lipid stocks were diluted in absolute ethanol (10 mM, 5 mM, 1 mM, 0.1 mM) and prepared in a nitrogen gas chamber. Using conditions similar to ANS binding, increasing concentrations of FAs [stearate (SA), oleate (OA), and LA] were titrated into a pre-equilibrated solution containing 45 µM ANS, 1 µM r-LFABP, and 50 mM tricine (pH 8.0). The sample was mixed for an additional 30 seconds and the excitation and emission of ANS was measured as mentioned, where the loss of fluorescence indicates affinity towards the lipid.
(§5) For the displacement assays, one-site inhibition analysis of the data was utilized based on the fit of the data (instead of a two-site inhibition analysis) (eq2). Fluorescence counts that are inhibitable are denoted as bi, and residual counts are br. The concentration of OA, SA or LA is denoted as [FA]. The Hill constant, η, indicates the cooperativity between the binding sites, where if η >1 the sites are positively cooperative, η <1 the site are negatively cooperative, and if η = 1 the sites are non-cooperative. [drawing 2] (2)

4-HNE adducted rL-FABP = biological target: T7, 4-HNE adducted rL-FABP (Mus musculus, UniProt P12710); assay: Displacement of ANS by fatty acids, 1X 4-HNE treated rL-FABP; type: binding; conditions: for bi (counts inhibitable) / Ki: 1X 4-HNE (53.95 µM) treated rL-FABP; for Ki: read-out: ki (inhibition constant); for br (counts residual) / n (hill coefficient): 1X 4-HNE treated rL-FABP; for reduction of maximal binding to the FA by 4-HNE: 1X 4-HNE treated versus WT rL-FABP
T7 construct: made in house; host or cells: Escherichia coli BL21 (DE3)
T7 sequence (P12710 1-127): T1 sequence (P12710 1-127)
Procedure: as §4, §5

[5] = rL-FABP treated with 5X 4-HNE + PG
[6] = rL-FABP treated with 1X 4-HNE (53.93 µM)
[7] = rL-FABP treated with 5X 4-HNE (245.09 µM)

## CCCCCC(O)C=CC=O (centres unmarked) [4-HNE, 4-hydroxy-2-nonenal]
Apo rL-FABP; 0.1X 4-HNE (4.93 µM)
  Tm of apo rL-FABP: 70.09±0.004 °C
Apo rL-FABP; 1X 4-HNE (49.26 µM)
  Tm of apo rL-FABP: 68.56±0.05 °C
Apo rL-FABP; 5X 4-HNE (246.31 µM)
  Tm of apo rL-FABP: 66.38±0.15 °C
Apo rL-FABP; P<0.01
  ΔTm of apo L-FABP by 4-HNE adduction: 5.44 °C
Holo rL-FABP; 0.1X 4-HNE (4.93 µM)
  Tm of holo rL-FABP: 83.84±0.39 °C
Holo rL-FABP; 1X 4-HNE (49.26 µM)
  Tm of holo rL-FABP: 84.89±0.48 °C
Holo rL-FABP; 5X 4-HNE (246.31 µM)
  Tm of holo rL-FABP: 83.698±0.53 °C
[1]
  half-life: ~2 min
4-HNE modified rL-FABP; saturation analyses
  reduction of capacity for ligand when adducted by 4-HNE: approximately 50%

## O=S(=O)(O)c1cccc2cccc(Nc3ccccc3)c12 [ANS, 1-Anilinonaphthalene-8-Sulfonic Acid]
rL-FABP [2]
  Kd: 347 ± 153 nM
rL-FABP [2]; native rL-FABP (0X 4-HNE), 1 µM protein, primary site
  Bmax1: 540,200±142,500 AFU
rL-FABP [2]; native rL-FABP, secondary site
  Bmax2: 500,500±116,800 AFU
rL-FABP [2]; read-out: Kd2, native rL-FABP, secondary site
  Kd: 6170 ± 1440 nM
[3]
  Kd: 326 ± 127 nM
[3]; [5]
  Bmax1: 168,200±22,900 AFU
  Bmax2: 512,200±64,500 AFU
[3]; read-out: Kd2, rL-FABP treated with 5X 4-HNE + PG
  Kd: 27900 ± 10700 nM
PG treated rL-FABP
  Kd: 165 ± 111 nM
PG treated rL-FABP; rL-FABP treated with PG 10 mM
  Bmax1: 83,200±23,200 AFU
  Bmax2: 446,400±17,500 AFU
PG treated rL-FABP; read-out: Kd2, rL-FABP treated with PG 10 mM
  Kd: 7180 ± 121 nM
4-HNE modified rL-FABP; 5X 4-HNE versus native (kd2)
  decrease in the affinity for ANS, secondary binding site: ~6 fold
4-HNE modified rL-FABP; Kd1, rL-FABP treated with 0.1X 4-HNE (5.93 µM)
  Kd: 132 ± 74 nM
4-HNE modified rL-FABP; Kd1, rL-FABP treated with 1X 4-HNE (53.93 µM)
  Kd: 135 ± 74 nM
4-HNE modified rL-FABP; Kd1, rL-FABP treated with 5X 4-HNE (245.09 µM)
  Kd: 395 ± 101 nM
4-HNE modified rL-FABP; rL-FABP treated with 0.1X 4-HNE (5.93 µM)
  Bmax1: 175,500±36,800 AFU
4-HNE modified rL-FABP; [6]
  Bmax1: 123,000±28,900 AFU
  Bmax2: 548,900±23,700 AFU
4-HNE modified rL-FABP; [7]
  Bmax1: 238,100±21,700 AFU
  Bmax2: 537,400±81,900 AFU
4-HNE modified rL-FABP; read-out: Kd2, rL-FABP treated with 0.1X 4-HNE (5.93 µM)
  Kd: 7400 ± 1070 nM
4-HNE modified rL-FABP; read-out: Kd2, rL-FABP treated with 1X 4-HNE (53.93 µM)
  Kd: 4990 ± 710 nM
4-HNE modified rL-FABP; read-out: Kd2, rL-FABP treated with 5X 4-HNE (245.09 µM)
  Kd: 34200 ± 13900 nM

## CCCCC/C=C\C/C=C\CCCCCCCC(=O)O [Linoleic Acid]
rL-FABP [4]
  br (counts residual): 164,800±43,900 AFU
  n (hill coefficient): 1.38±0.26
  bi (counts inhibitable): 888,000±54 AFU
  Ki: 1560 ± 290 nM
4-HNE adducted rL-FABP
  bi (counts inhibitable): 449,500±11,400 AFU
  Ki: 2800 ± 300 nM
  br (counts residual): 96,300±9,200 AFU
  n (hill coefficient): 1.76±0.14
  reduction of maximal binding to the FA by 4-HNE: 49%

## CCCCCCCC/C=C\CCCCCCCC(=O)O [Oleic Acid]
rL-FABP [4]
  br (counts residual): 171,600±19,800 AFU
  n (hill coefficient): 2.31±0.29
  bi (counts inhibitable): 680,200±26,500000 AFU
  Ki: 5880 ± 1450 nM
4-HNE adducted rL-FABP
  bi (counts inhibitable): 457,600±26,400 AFU
  Ki: 690 ± 97 nM
  br (counts residual): 63,500±19,200 AFU
  n (hill coefficient): 0.81±0.0999
  reduction of maximal binding to the FA by 4-HNE: 32.7%

## CCCCCCCCCCCCCCCCCC(=O)O [Stearic Acid]
rL-FABP [4]
  br (counts residual): 145,800±14,400 AFU
  n (hill coefficient): 2.75±0.264
  bi (counts inhibitable): 698,800±19,400 AFU
  Ki: 1190 ± 130 nM
4-HNE adducted rL-FABP
  bi (counts inhibitable): 411,800±36,800 AFU
  Ki: 4410 ± 1660 nM
  br (counts residual): 81,300±30,500 AFU
  n (hill coefficient): 2.74±0.37
  reduction of maximal binding to the FA by 4-HNE: 41%

B1: apo rL-FABP: purified, delipidated recombinant mouse liver fatty acid-binding protein (unbound) (protein, UniProt P12710 1-127, looked up)
Fatty acid-binding protein, …: T1 sequence (P12710 1-127)
modifications: delipidated
Apo rL-FABP; native apo rL-FABP, 0X 4-HNE
  Tm (temperature of aggregation): 71.82±0.09 °C

B2: holo rL-FABP: recombinant mouse L-FABP incubated with 1 mM linoleic acid (lipid-bound) (protein, UniProt P12710 1-127, looked up)
Fatty acid-binding protein, …: T1 sequence (P12710 1-127)
modifications: linoleic acid bound
Holo rL-FABP; native holo rL-FABP (linoleic acid bound)
  Tm (temperature of aggregation): 86.09±0.57 °C
